The values below come from patent US5856506A, “Phosphatase inhibitors and methods of use thereof” (University of Pittsburgh, priority 1997, dated 1999).

Assay [1] concerns PP3. Particulars: background, literature; cited from earlier work.
For assay [2], the target named is PP2A (Homo sapiens, UniProt P67775). Particulars: background, literature, cited from earlier work.
Assay [3] concerns PP1. Particulars: cited from earlier work.
The test system of assay [4] is PP3. The experiment in a line: Phosphatase activity by [32P] release from phosphorylase-a or phosphohistone (Honkanen method). In kind it is biochemical. Particulars: 100 μM inhibitor; none = 100. On the procedure:
(§1) It has been found in accordance with the present invention that compounds of formula I are capable of inhibiting serine/threonine protein phosphatases. Inhibition of serine/threonine protein phosphatases is defined herein as inhibition of the activity of one or more of PP1, PP2A or PP3 at a concentration of 100 μM or less of the inhibitor compound. In a preferred embodiment, the activity of the phosphatase is inhibited by at least 10%. In more preferred embodiments, the activity of the phophatase is inhibited by at least 25%, or even more preferably, by at least 50%. Inhibition of PP1, PP2A or PP3 can be assessed by methods known to one of ordinary skill in the art. Suitable assays are described, for example by Honkanen et al. (1994) Toxicon 32:339 and Honkanen et al. (1990) J. Biol. Chem. 265: 19401, the disclosures of which are incorporated herein by reference. Briefly, phosphatase activity is determined by quantifying the [^32 p] released from a ^32 p-labeled substrate such as phosphohistone or phosphorylase-a. Decreased [^32 p] release in the presence of the compounds of the present invention relative to control samples provides a measure of the ability of the compounds of the invention to inhibit PP1, PP2A or PP3.
(§2) Phosphatase activity and the inhibitory activity of the compounds of Table 1 were determined by the method of Honkanen et al. (1994) Toxicon 32:339. Briefly, phosphatase activity against phosphorylase-a or phosphohistone was 25 determined by the quantification of liberated [^32 p]. Assays, 80 μl total volume, containing 50 mM Tris-HCl, pH 7.4, 0.5 mM DTT, 1 mM EDTA (assay buffer) and [^32 p]phosphoprotein (1-2 μM PO4), were conducted as described previously (Honkanen et al., 1991 Mol. Pharmac. 40:577). Dephosphorylation reactions were routinely conducted for 5-10 min. using phosphorylase-a as a substrate and for 10-20 min. using phosphohistone. In all assays the dephosphorylation of substrate was kept to less than 10% of the total phosphorylated substrate available, and the reactions were adjusted to ensure that enzyme activity was linear with respect to enzyme concentration and time. [^32 p]Phosphate liberated by the enzymes was extracted as a phosphomolybdate complex and measured according to the methods of Killilea et al. (1978) Arch. Biochem. Biophys. 191:638. Inhibition of protein phosphatase activity by inhibitors was determined by adding the 100 μM of inhibitors to the enzyme mixture 5-10 min. prior to initiating the reaction with the addition of substrate.

Assay [5] has as its system PP1. The assay is described as above. Type of assay: biochemical. Particulars: 100 μM inhibitor; none = 100. Here is the method:
as §1, §2

The target in assay [6] is PP2A (Bos taurus, UniProt P67774). The description is as above. In kind it is biochemical. Particulars: 100 μM inhibitor; none = 100; read-out: PP2A, percent inhibition relative to control (100%). Here is the method:
as §1, §2

The target in assay [7] is T1, catalytic subunit of bovine cardiac muscle PP2A (Bos taurus, UniProt P67774).
T1 construct: purchased Gibco-BRL, Gaithersburg, Md; host or cells: bovine cardiac muscle
T1 sequence (P67774 whole entry): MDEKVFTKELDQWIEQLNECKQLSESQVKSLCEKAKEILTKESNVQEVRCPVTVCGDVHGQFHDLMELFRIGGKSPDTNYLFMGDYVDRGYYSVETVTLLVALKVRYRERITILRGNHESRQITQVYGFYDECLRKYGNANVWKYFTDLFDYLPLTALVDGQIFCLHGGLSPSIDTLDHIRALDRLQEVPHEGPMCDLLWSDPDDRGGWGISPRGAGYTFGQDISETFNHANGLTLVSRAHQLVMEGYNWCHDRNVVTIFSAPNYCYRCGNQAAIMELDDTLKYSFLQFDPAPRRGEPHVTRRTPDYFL
The experiment in a line: PP2A activity with fluorescein diphosphate substrate in 96-well plates. In kind it is biochemical. Particulars: FIG. 6. On the procedure:
FIG. 6 is a graph of inhibition of PP2A activity by compound 1d. The catalytic subunit of PP2A was incubated with vehicle alone (control), calyculin A (10 nM) or compound 1d (100 uM), and the dephosphorylation of the substrate fluorescein diphosphate determined spectro-photometrically. Mean results of two independent experiments are shown; bars indicate the range.
In another suitable assay, the ability of the compounds of the present invention to inhibit the activity of protein phosphatase PP2A is assessed. The activity of the catalytic subunit of bovine cardiac muscle PP2A (Gibco-BRL, Gaithersburg, Md.) is measured in 96-well microtiter plates using the substrate fluorescein diphosphate as follows. […] Fluorescence emission from the product is measured spectrofluorometrically, for example with Perseptive Biosystems Cytofluor II (Framingham, Mass.) (excitation filter, 485 nm; emission filter, 530 nm). The rate of increase in absorbance due to formation of dephosphorylated substrate is proportional to phosphatase activity. Thus, decreased absorbance relative to control samples provides a measure of the ability of the present compounds to inhibit the phosphatase.
The activity of the catalytic subunit of bovine cardiac muscle PP2A (Gibco-BRL, Gaithersburg, Md.) was measured with fluorescein diphosphate (Molecular Probes, Inc., Eugene, Oreg.) as a substrate in 96-well microtiter plates. […]

A further assay relates to Recombinant human CDC25B. The experiment in a line: CDC25B phosphatase assay, GST fusion protein, fluorescein diphosphate. Type of assay: biochemical. Particulars: none = 100; 1 hour preincubation; concentration not given (0.3-100 μM tested). Here is the method: The compounds of the present invention are also capable of inhibiting dual specificity phosphatases, for example CDC25A and CDC25B. Phosphatases CDC25A and CDC25B are disclosed in U.S. Pat. No. 5,441,880. Inhibition of dual specificity phosphatases is defined herein as inhibition of the activity of CDC25A and/or CDC25B at a concentration of 100 μM of the inhibitor compound. In a preferred embodiment, the activity of the phosphatase is inhibited by at least 10%. In more preferred embodiments, the activity of the phophatase is inhibited by at least 25%, or even more preferably, by at least 50%. The ability of the compounds of the present invention to inhibit the phosphatases can be determined by measuring the effect of the compounds on the ability of CDC25 or CDC25B to dephosphorylate a substrate. Appropriate methods are known to those of ordinary skill in the art, and include, for example, calorimetric assays. A suitable assay is described in U.S. Pat. No. 5,441,880, the disclosure of which is incorporated herein by reference. […] The assay may be performed as a rapid calorimetric microtitration plate assay.
Compounds 1a-1r were assessed for ability to inhibit CDC25A and CDC25B activity. Recombinant human CDC25A and CDC25B were obtained as a glutahione-S-transferase (GST) fusion protein using human cDNA and standard molecular biological methods. The cDNA constructs are in a plasmid that is expressed in E. coli under the control of isopropyl-beta-D-[…] (IPTG). The bacterial pellet was disrupted by sonication, and centrifuged at 10,000×g. Using glutathione-agarose beads, the fusion protein was purified from postmicrosomal supernant fraction as described by Baratte et al. (1992) Anticancer Res. 12: 873-880. Phosphatase activity was assayed with a spectrofluorimeter under the following conditions: 1 unit (1 U=amount of protein that induces 33 fluoresence units/minute of product) of fusion protein in a final incubation mixture (150 μL) comprised of 25 mM Tris (pH=8.0), 5 mM EDTA, 33 μg/ml BSA, and 20 μM fluorescein diphosphate in 96-well microtiter plates. Plates were preincubated for 1 hour with 0 (control), 0.3, 1, 3, 10, 30, 100 μM compounds at room temperature. After the 1 hour incubation at room temperature, fluorescence of the fluorescein product (Ex. 485 nm; Em. 530 nm) were measured with a Biosystems Cytofluor II (Framingham, Mass.).

Assay [8] has as its system human MDA-MB-231 breast cancer cells. The experiment in a line: Antiproliferative activity, tetrazolium reduction assay (Lazo method), 72 h. Particulars: MDA-MB-231, 72 h. In kind it is cell-based. The text has this:
The ability of the compounds of the present invention to inhibit proliferation can be assessed by methods known to those of ordinary skill in the art. For example, proliferating cells can be contacted with a compound of the invention, and cell numbers determined. A reduction in cell number in treated versus untreated cells provides a measure of the ability of the present compounds to inhibit proliferation. In a preferred embodiment the cells to be treated are cancer cells, for example breast cancer cells such as the CDC25B+ breast cancer cells MDA-MB-231, which are available from the American Type Culture Collection (Accession No. HTB-26). The antiproliferative activity of the present compounds can also be measured by the assay described by Lazo et al. (1995) J. Biol. Chem. 270: 5506, the disclosure of which is incorporated herein by reference. The microtiter-based calorimetric assay is based upon the reduction of 3-[4,5-dimethylthiazol-2-yl]-2,5-diphenyl tetrazolium bromide by living cells, and permits evaluation of the cytostatic or cytotoxic actions of large numbers of compounds quickly in mouse embryonic fibroblasts and human CDC25B+ breast cancer cells. Briefly, exponentially growing CDC25B+ MDA-MB-231 cells are treated continuously with from 0 to 100 μM of a compound of the invention, and cell proliferation is determined calorimetrically after 72 hours by assessing the ability of the cells to reduce 3-[4,5-dimethylthiazol-2-yl]-2,5-diphenyl tetrazolium bromide.
Human MDA-MB-231 breast carcinoma cells were obtained from the American Type Culture Collection at passage 28 and were maintained for no longer than 20 passages. The cells were grown in RPMI-1640 supplemented with 1% penicillin (100 μg/mL) and streptomycin (100 μg/mL), 1% L-glutamate,and 10% fetal bovine serum in a humidified incubator at 37° C. under 5% CO2 in air. Cells were routinely found free of mycoplasma. To remove cells from the monolayer for passage or flow cytometry, cells were washed two times with phosphate buffer and briefly (<3 min) treated with 0.05% trypsin/2 mM EDTA at room temperature. After the addition of at least two volumes of growth medium containing 10W fetal bovine serum, the cells were centrifuged at 1,000×g for 5 min. Compounds were made into stock solutions using DMSO, and stored at -20° C. All compounds and controls were added to obtain a final concentration of 0.1-0.2% (v/v) of the final solution for experiments.
The antiproliferative activity of the compounds was determined by the method of Lazo et al. (1995) J. Biol. Chem. 270:5506. Briefly, cells (6.5×10^3 cells/cm^2) were plated in 96 well flat bottom plates for the cytotoxicity studies and incubated at 37° C. for 48 h. The plating medium was aspirated off 96 well plates and 200 μL of growth medium containing the compound was added per well. Compounds were used at from O to the highest available concentration which ranged from 30 to 100 μM. Plates were incubated for 72 h, and then washed 4× with serum free medium. After washing, 50 μL of 3-[4,5-dimethylthiazol-2-yl]-2,5-diphenyl tetrazolium bromide solution (2 mg/mL) was added to each well, followed by 150 μL of complete growth medium. Plates were then incubated an additional 4 h at 37° C. The solution was aspirated off, 200 μL of DMSO added, and the plates were shaken for 30 min at room temperature. Absorbance at 540 nm was determined with a Titertek Multiskan Plus plate reader. Biologically active compounds were tested at least 3 independent times.

Setting [9] is: somewhat selective but weak inhibitors.

Where two headings read alike, the source gives them in different places. Where only a bound is given, the exact number is not on record here.

Chain of PP2A (Homo sapiens, UniProt P67775) (P67775 whole entry): as the sequence (P67774 whole entry) above
Chain of PP2A (Bos taurus, UniProt P67774) (P67774 whole entry): as above

Turning to `CO[C@H]([C@H](O)CC(=O)[C@@H](C)[C@@H](O)CC[C@@H](C)[C@@H]1O[C@]2(CC[C@@H](C)[C@H](CC[C@H](C)C(C)=O)O2)CC[C@@H]1C)[C@H](OC(=O)C[C@@H](O)C1=C(C)C(=O)OC1=O)C(C)C` [Tautomycin], the IC50 is approximately 15 nM with PP3 [1]; approximately 15 nM on PP2A [2]; approximately 15 nM in the assay with PP1 [3] (background, literature).
Consider `CCCCCCCCCC(=O)NC(CCC(=O)N(C)CCNC(=O)c1nc(-c2ccccc2)oc1-c1ccccc1)C(=O)O` (stereo not drawn) [Compound 1d], for which the “PP3 remaining activity, percent of control” value in the assay with PP3 [4] worked out at 33%. In addition, the “PP1 remaining activity, percent of control” value in the assay with PP1 [5] is given as 53%. Further, the PP2A remaining activity, % of control at 100 µM at PP2A [6] came to 69%. Moreover, at 100 µM the inhibition in [7] (100 μM) was 50%. Moreover, the “CDC25B activity remaining, percent of control” value with Recombinant human CDC25B came out at 91%.
In the case of thyrsiferal-23-acetate, on PP2A [2] (setting [9]), the IC50 is 160 to 10000 nM.
As to `CCCCCCN(CCNC(=O)c1nc(-c2ccccc2)oc1C)C(=O)CCC(NC(=O)CCc1ccccc1)C(=O)O` (stereo not drawn) [Compound 1h], the “PP3 remaining activity, percent of control” value with PP3 [4] is reported as 17%. For the same compound, the “PP1 remaining activity, percent of control” value in the assay with PP1 [5] is 63%. At PP2A [6], the PP2A remaining activity, % of control at 100 µM came to 88%. Besides, in [8] (Homo sapiens, MDA-MB-231, 72 h continuous treatment, read-out: concentration causing 50% growth inhibition), the IC50 worked out at 20000 nM. Moreover, in assay [8], the “concentration dependence of growth inhibition (in words)” value is listed as “no further cytotoxicity at higher drug concentrations”. For the same compound, the “CDC25B activity remaining, percent of control” value with Recombinant human CDC25B stood at 69%.
Turning to `COC[C@@H]([C@H](O)[C@H](O)C(=O)NCC[C@H](C)c1nc(/C=C/C[C@@H]2O[C@]3(C[C@@H](O)[C@@H]2C)O[C@H]([C@H](C[C@H](O)[C@H](C)[C@H](O)[C@H](C)/C=C(C)/C(C)=C/C=C/C(C)=C\C#N)OC)[C@H](OP(=O)(O)O)C3(C)C)co1)N(C)C` [calyculin A], the “inhibition of PP2A activity (in words)” value in [7] (10 nM) is reported as “inhibited PP2A activity”. For the same compound, the IC50 in the assay with PP3 [1] is approximately 0.3 nM; on PP2A [2] it was approximately 0.3 nM; in the assay with PP1 [3] (background, literature), approximately 0.3 nM.
In the case of `C/C=C1/C(=O)N[C@@H](C(=O)O)[C@H](C)C(=O)N[C@@H](C(C)C)C(=O)N[C@@H](/C=C/C(C)=C/[C@H](C)[C@H](Cc2ccccc2)OC)[C@H](C)C(=O)N[C@@H](C(=O)O)CCC(=O)N1C` [Motuporin], the IC50 in the assay on PP1 [3] was less than 1 nM.
With `C[C@@]12C(=O)OC(=O)[C@]1(C)[C@H]1CC[C@@H]2O1` [cantharidine], the IC50 on PP2A [2] (setting [9]) is 160 to 10000 nM.

In general, inhibition refers to the relative decrease from the control value, in per cent. Read a high inhibition as a strong effect.
